Measurements taken from patent publication US8226976B2, “Method of using cell-free protein synthesis to produce a membrane protein” (Riken, priority 2007, dated 2012).

Assays:
[1] = in water; cited from earlier work
[2] = test system: cell-free protein synthesis system (S30 extract); assay: cell-free synthesis of BR by the dialysis method with the cholate concentration kept constant; type: biochemical, E. coli; settings: 1% sodium cholate added to internal and external dialysis solutions; FIG. 2, Lanes 3, 4
Experimental: A protein synthesis reaction was performed as follows: an internal solution of the composition as shown in table 1 as mentioned below was supplied with 100 μM all-trans retinal at final concentration (Sigma), 9 μg of synthetic plasmid as necessary, a predetermined concentration of a detergent, and 6 mg of egg yolk phosphatidylcholine (Type XVI-E, Sigma) to prepare a reaction solution, 0.9 ml of which was poured into a dialysis membrane (Spectra/Por 7, Molecular Weight Cut Off: 15000, Spectrum). The synthesis reaction was performed at 30° C. for 6 h during dialysis which was to 10 times volume of external solution (9 mL) in a 15 mL conical tube by rotary shaking with a rotary shaker (RT-50, TAITEC). […]
After termination of the synthesis reaction, the reaction internal solution was centrifuged at 15000 rpm for 10 min. […] Scatter correction was performed by subjecting the determined scores from 680 nm to 750 nm to linear regression to subtract from the measured spectrums. The amount of an active BR was calculated from the score of the spectrum of 560 nm as subjected to the scatter correction using the molar absorption coefficient: 42000 and the molecular weight: 31.4 k. […]

| SMILES | critical micelle concentration (cmc) [1] | synthesis of BR (effect of inhibiting protein synthesis) [2] |
| --- | --- | --- |
| C[C@@H]1CC[C@@]2(OC1)O[C@H]1[C@@H](O)[C@H]3[C@@H]4CC[C@H]5C[C@@H](O[C@@H]6O[C@H](CO)[C@H](O[C@@H]7O[C@H](CO)[C@@H](O)[C@H](O[C@@H]8OC[C@@H](O)[C@H](O)[C@H]8O)[C@H]7O[C@@H]7O[C@H](CO)[C@H](O)[C@H](O[C@@H]8O[C@H](CO)[C@@H](O)[C@H](O)[C@H]8O)[C@H]7O)[C@H](O)[C@H]6O)[C@H](O)C[C@]5(C)[C@H]4CC[C@]3(C)[C@H]1[C@@H]2C [digitonin] | 0.06 % (w/v) | – |
| C[C@H](CCC(=O)NCCC[N+](C)(C)CCCS(=O)(=O)[O-])[C@H]1CC[C@H]2[C@@H]3[C@H](O)C[C@@H]4C[C@H](O)CC[C@]4(C)[C@H]3C[C@H](O)[C@]12C [CHAPS, 3-[(3-cholamidepropyl)dimethylammonio]-1-propanesulfonate] | 0.49 % (w/v) | – |
| C[C@H](CCC(=O)[O-])[C@H]1CC[C@H]2[C@@H]3[C@H](O)C[C@@H]4C[C@H](O)CC[C@]4(C)[C@H]3C[C@H](O)[C@]12C.[Na+] [sodium cholate] | 0.41 % (w/v) | synthesis of BR was not found |
